Patent US20160333404A1, “METHODS FOR TREATING HCV” (priority 2012, published 2016)

Tests used:
miR-122 [1] = experiment: Serum miR-122 expression by microRNA real-time PCR, Example 2, 3 days polymerase inhibitor monotherapy then with P/R; assay type: in vivo, human; conditions: treatment-naïve GT1 subjects, day 3 vs day 1
Method: Sample preparation and microRNA real-time PCR. Serum samples were collected at baseline (“BASE”), week 2 on-treatment (“W2”), week 10 on-treatment (“W10”), and 8 weeks after completing the 12 week regimen (“Post Week 8”) and frozen until analysis. Total RNA was extracted from serum using the Qiagen miRNeasy® Mini Kit. Serum was thawed on ice and centrifuged at 3000×g for 5 min in a 4° C. microcentrifuge. An aliquot of 200 μL of serum per sample was transferred to a new microcentrifuge tube and 750 μl of a Qiazol mixture containing 1.25 μg/mL of MS2 bacteriophage RNA was added to the serum. The tube was mixed and incubated for 5 min followed by the addition of 200 μL chloroform. […]
15 μl RNA was reverse transcribed in 75 μl reactions using the miRCURY LNA™ Universal RT microRNA PCR, Polyadenylation and cDNA synthesis kit (Exiqon). cDNA was diluted 50× and assayed in 10 ul PCR reactions according to the protocol for miRCURY LNA™ Universal RT microRNA PCR; each microRNA was assayed once by qPCR on the microRNA Ready-to-Use PCR, Human panel I and panel II. […] The amplification curves were analyzed using the Roche LC software, both for determination of Cp (by the 2nd derivative method) and for melting curve analysis. All data was normalized to the average of assays detected in all samples (average—assay Cp). […]

miR-122 [2] = experiment: Serum miR-122 levels with or without RBV, genotype 2 and 3 patients that achieved SVR (FIG. 7); assay type: in vivo, human; conditions: HCV 2 and 3 subjects who achieve SVR on Compound 1/r with Compound 3; presence n=13, absence n=9
From the text: Sample preparation and microRNA real-time PCR. Serum samples were collected at baseline (“Baseline”), day 3 on-treatment (“Day 3”), week 2 on-treatment (“Week 2”), week 10 on-treatment (“Week 10”), and 8 weeks after completing the 12 week regimen (“PT Week 8”) and frozen until analysis. Samples were processed as described in Example 1.
In HCV 2 and 3 subjects who achieve SVR, miR-122 levels are not affected by the presence (n=13) or absence (n=9) of RBV.

SMILES	Levels of miR-122 after three days of polymerase inhibitor alone (miR-122 [1])	effect of presence or absence of RBV on miR-122 levels (miR-122 [2])
COc1c(-c2ccc3cc(NS(C)(=O)=O)ccc3c2)cc(-n2ccc(=O)[nH]c2=O)cc1C(C)(C)C [Compound 2, N-(6-(3-tert-butyl-5-(2,4-dioxo-3,4-dihydropyrimidin-1(2H)-yl)-2-methoxyphenyl)naphthalen-2-yl)methanesulfonamide]	decreased	
COc1c(/C=C/c2ccc(NS(C)(=O)=O)cc2)cc(-n2ccc(=O)[nH]c2=O)cc1C(C)(C)C [Compound 4, (E)-N-(4-(3-tert-butyl-5-(2,4-dioxo-3,4-dihydropyrimidin-1(2H)-yl)-2-methoxystyryl)phenyl)methanesulfonamide]	decreased	
NC(=O)c1ncn([C@@H]2O[C@H](CO)[C@@H](O)[C@H]2O)n1 [RBV, ribavirin]		not affected
